# Reference: ChEMBL document CHEMBL1138964, “Synthesis and efficacy of 1-[bis(4-fluorophenyl)-methyl]piperazine derivatives for acetylcholinesterase inhibition, as a stimulant of central cholinergic neurotransmission in Alzheimer's disease” (Bioorg Med Chem Lett, 2006)
# Key:
# Acetylcholinesterase [1] = target: T1, Acetylcholinesterase (Rattus norvegicus, UniProt P37136); assay: Inhibition of rat brain homogenate AchE
# T1 sequence (P37136 whole entry): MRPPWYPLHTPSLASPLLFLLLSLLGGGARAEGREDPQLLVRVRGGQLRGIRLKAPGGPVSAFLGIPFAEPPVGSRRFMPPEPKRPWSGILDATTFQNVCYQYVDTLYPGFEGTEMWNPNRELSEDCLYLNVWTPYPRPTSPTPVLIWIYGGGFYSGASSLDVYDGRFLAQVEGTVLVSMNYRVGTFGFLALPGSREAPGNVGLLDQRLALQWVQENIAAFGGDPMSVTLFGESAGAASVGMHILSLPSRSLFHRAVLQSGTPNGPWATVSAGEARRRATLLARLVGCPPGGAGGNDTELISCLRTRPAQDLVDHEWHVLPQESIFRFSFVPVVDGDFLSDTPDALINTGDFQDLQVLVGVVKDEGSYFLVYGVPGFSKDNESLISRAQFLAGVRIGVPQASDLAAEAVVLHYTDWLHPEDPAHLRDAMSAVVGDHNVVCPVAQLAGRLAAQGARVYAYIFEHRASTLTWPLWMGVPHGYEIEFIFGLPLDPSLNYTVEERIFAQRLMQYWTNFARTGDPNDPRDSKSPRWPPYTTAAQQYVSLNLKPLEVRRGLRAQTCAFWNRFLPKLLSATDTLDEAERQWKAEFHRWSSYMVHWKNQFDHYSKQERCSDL
# Acetylcholinesterase [2] = target: Acetylcholinesterase (Homo sapiens, UniProt P22303); assay: Inhibition of human serum AchE
# Acetylcholinesterase (Homo sapiens, UniProt P22303), sequence (P22303 whole entry): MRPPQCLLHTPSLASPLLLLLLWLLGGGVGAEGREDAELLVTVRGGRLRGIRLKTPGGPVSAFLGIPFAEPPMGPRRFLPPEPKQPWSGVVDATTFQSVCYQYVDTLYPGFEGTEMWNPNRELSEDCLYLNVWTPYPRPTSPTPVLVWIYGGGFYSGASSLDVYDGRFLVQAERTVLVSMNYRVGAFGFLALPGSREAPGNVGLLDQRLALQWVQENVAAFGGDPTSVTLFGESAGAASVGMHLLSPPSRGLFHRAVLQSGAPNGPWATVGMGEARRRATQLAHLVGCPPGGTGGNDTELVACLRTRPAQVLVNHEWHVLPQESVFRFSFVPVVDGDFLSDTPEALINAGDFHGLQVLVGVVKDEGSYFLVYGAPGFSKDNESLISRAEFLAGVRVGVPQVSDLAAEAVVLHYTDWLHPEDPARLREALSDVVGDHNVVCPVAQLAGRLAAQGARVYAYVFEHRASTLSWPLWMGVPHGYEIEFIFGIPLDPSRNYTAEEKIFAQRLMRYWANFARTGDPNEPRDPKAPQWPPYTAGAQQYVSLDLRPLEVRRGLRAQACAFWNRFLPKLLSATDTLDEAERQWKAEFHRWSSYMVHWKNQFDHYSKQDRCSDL
# Acetylcholinesterase [3] = target: Acetylcholinesterase (Electrophorus electricus, UniProt O42275); assay: Inhibition of electric eel AchE
# Acetylcholinesterase (Electrophorus electricus, UniProt O42275), sequence (O42275 whole entry): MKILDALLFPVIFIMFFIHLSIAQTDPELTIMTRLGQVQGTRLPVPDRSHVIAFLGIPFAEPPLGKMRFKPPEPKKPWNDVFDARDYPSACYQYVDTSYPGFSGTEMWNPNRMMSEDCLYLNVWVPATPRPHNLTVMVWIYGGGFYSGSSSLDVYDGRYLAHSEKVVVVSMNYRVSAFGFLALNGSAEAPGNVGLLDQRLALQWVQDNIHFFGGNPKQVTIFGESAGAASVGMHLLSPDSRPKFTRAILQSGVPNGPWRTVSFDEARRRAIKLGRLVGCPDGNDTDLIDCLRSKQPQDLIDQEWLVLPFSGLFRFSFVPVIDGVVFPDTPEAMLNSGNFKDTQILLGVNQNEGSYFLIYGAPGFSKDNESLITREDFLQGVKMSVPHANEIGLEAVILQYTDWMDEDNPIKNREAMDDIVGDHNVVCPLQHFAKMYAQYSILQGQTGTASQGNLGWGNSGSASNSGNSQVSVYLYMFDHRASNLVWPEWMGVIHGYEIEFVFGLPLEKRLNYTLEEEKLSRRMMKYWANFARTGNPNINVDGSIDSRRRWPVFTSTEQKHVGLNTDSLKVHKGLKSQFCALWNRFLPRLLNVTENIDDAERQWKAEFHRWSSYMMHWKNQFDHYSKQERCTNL
# Rattus norvegicus [4] = assay: Antiamnesic effect against scopolamine-induced memory loss in passive avoidance step-down task paradigm in rat assessed as number of mistakes at 0.1 mg/kg, ip; assay type: functional; settings: route intraperitoneal
# Rattus norvegicus [5] = assay: Antiamnesic effect in passive avoidance step-down task paradigm in rat assessed as number of mistakes at 0.4 mg/kg, ip; assay type: functional; settings: route intraperitoneal
structure (smiles),measurement,setting,value
N#Cc1ccccc1-c1ccc(CN2CCN(C(c3ccc(F)cc3)c3ccc(F)cc3)CC2)cc1,IC50,Acetylcholinesterase [1]; read-out: IC50,37.5 nM
same,IC50,Acetylcholinesterase [2],73.6 nM
same,IC50,Acetylcholinesterase [3],70.5 nM
same,Activity,Rattus norvegicus [4],11
Cc1nc2ccccn2c(=O)c1CCN1CCN(C(c2ccc(F)cc2)c2ccc(F)cc2)CC1,IC50,Acetylcholinesterase [1],Not Active
same,IC50,Acetylcholinesterase [2],3200 nM
same,IC50,Acetylcholinesterase [3],2130 nM
same,Activity,Rattus norvegicus [4],32
COc1cc(Br)c(CN2CCN(C(c3ccc(F)cc3)c3ccc(F)cc3)CC2)cc1OC,IC50,Acetylcholinesterase [1],Not Active
same,IC50,Acetylcholinesterase [2],1010 nM
same,IC50,Acetylcholinesterase [3],715 nM
same,Activity,Rattus norvegicus [4],34
Fc1ccc(C(c2ccc(F)cc2)N2CCN(CCN3CCCCC3)CC2)cc1,IC50,Acetylcholinesterase [1]; read-out: IC50,93.7 nM
same,IC50,Acetylcholinesterase [2],126 nM
same,IC50,Acetylcholinesterase [3],135 nM
same,Activity,Rattus norvegicus [4],12
CC1=C(CCN2CCN(C(c3ccc(F)cc3)c3ccc(F)cc3)CC2)C(=O)C2CCCCC2=N1 (stereo not given),IC50,Acetylcholinesterase [1],Not Active
same,IC50,Acetylcholinesterase [2],1070 nM
same,IC50,Acetylcholinesterase [3],1210 nM
same,Activity,Rattus norvegicus [4],34
Cc1cc2c(cc1CN1CCN(C(c3ccc(F)cc3)c3ccc(F)cc3)CC1)OCO2,IC50,Acetylcholinesterase [1],Not Active
same,IC50,Acetylcholinesterase [2],1340 nM
same,IC50,Acetylcholinesterase [3],1140 nM
same,Activity,Rattus norvegicus [4],33
Fc1ccc(C(c2ccc(F)cc2)N2CCN(CCN3CCOCC3)CC2)cc1,IC50,Acetylcholinesterase [1]; read-out: IC50,200 nM
same,IC50,Acetylcholinesterase [2],284 nM
same,IC50,Acetylcholinesterase [3],253 nM
same,Activity,Rattus norvegicus [4],16
Fc1ccc(C(c2ccc(F)cc2)N2CCN(CCN3CCCC3)CC2)cc1,IC50,Acetylcholinesterase [1]; read-out: IC50,18.7 nM
same,IC50,Acetylcholinesterase [2],21 nM
same,IC50,Acetylcholinesterase [3],17.6 nM
same,Activity,Rattus norvegicus [4],10
CN(C)C(=O)Oc1cccc([N+](C)(C)C)c1 [NEOSTIGMINE METHYLSULFATE],IC50,Acetylcholinesterase [1]; read-out: IC50,37.5 nM
same,IC50,Acetylcholinesterase [3],41100 nM
CN1[C@@H]2C[C@@H](OC(=O)[C@H](CO)c3ccccc3)C[C@H]1[C@@H]1O[C@@H]12 [SCOPOLAMINE],Activity,Rattus norvegicus [5],35
